Like-named read-outs stand apart in the source and are kept apart here.
Assays:
[1] = test system: OR13a; details: Bactrocera dorsalis OR13a in HEK293 cells; read-out: EC50 in fluorescent measurements; cited from earlier work
[2] = test system: OR13a; details: Bactrocera dorsalis OR13a; read-out: EC50 in electrophysiology; cited from earlier work
[3] = target: OR85b receptor; details: cited from earlier work
[4] = target: T1, Drosophila OR85b (Drosophila melanogaster, UniProt Q9VHQ7); assay: cell-based; design: GCaMP6 calcium fluorescence in stable HEK293 OR+ORCO lines; peak dF normalised to 50 uM VUAA1 (=1); details: HEK293; relative to 50 uM VUAA1 response; below 0.05 set to 0; read-out: % activation
T1 construct: expressed in transfected cells
T1 sequence (Q9VHQ7 1-390): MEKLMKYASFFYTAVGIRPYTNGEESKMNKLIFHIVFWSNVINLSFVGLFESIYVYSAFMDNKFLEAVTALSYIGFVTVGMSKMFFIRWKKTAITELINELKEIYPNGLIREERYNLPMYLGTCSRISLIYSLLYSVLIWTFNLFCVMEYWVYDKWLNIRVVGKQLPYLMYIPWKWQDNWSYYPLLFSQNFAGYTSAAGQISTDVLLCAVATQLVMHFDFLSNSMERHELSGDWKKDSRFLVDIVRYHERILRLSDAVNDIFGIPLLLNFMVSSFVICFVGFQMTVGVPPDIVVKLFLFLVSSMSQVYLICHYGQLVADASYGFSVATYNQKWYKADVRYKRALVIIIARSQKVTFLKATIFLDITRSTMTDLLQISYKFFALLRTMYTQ
T1 sequence (Q9VNB5 1-486 partner): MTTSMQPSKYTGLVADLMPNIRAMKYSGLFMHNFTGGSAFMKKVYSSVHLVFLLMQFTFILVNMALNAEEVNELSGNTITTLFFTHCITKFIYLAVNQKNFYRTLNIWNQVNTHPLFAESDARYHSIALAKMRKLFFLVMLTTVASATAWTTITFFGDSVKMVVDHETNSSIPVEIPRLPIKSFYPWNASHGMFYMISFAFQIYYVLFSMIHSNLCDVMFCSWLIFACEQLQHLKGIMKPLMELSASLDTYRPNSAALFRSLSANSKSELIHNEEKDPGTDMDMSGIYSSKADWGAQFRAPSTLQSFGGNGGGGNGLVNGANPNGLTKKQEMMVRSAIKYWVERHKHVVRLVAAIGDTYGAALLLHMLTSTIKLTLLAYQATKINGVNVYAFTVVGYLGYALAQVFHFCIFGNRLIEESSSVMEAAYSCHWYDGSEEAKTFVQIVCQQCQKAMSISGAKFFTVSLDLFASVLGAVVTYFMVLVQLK
How it was run: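 Responses to VOCs (1, 10, 100 µM final) were read as fluorescence rise over baseline for 30 s in cells expressing the OR after 48–72 h doxycycline induction, in pH 7.3 buffer. ΔF values were divided by the same line's mean ΔF to 50 µM VUAA1 on that plate. Data are means of replicate days.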

C=CC(O)CCCCC (stereo not shown) [1-octen-3-ol]
EC50 [1]: 11.3 µM
EC50 [2]: 1.27 µM

CCCCCC(C)=O [2-heptanone]
EC50 ([3]; OR85b in Xenopus oocytes, Nichols and Luetje, read-out: EC50): 70 ± 20 µM
EC50 ([3]; OR85b, Misawa et al., read-out: average EC50): 45.6 µM

CC/C=C/CCO [e3-hexenol]
activity at 1 µM [4]: 0%
activity at 10 µM [4]: 0%
activity at 100 µM [4]: 0%
